From paper PMC8044178, “Structural basis of norepinephrine recognition and transport inhibition in neurotransmitter transporters” (Nature Communications, 2021)
Like-named read-outs stand apart in the source and are kept apart here.

How the values were obtained:
[1] = target: T1, dDATfc (Drosophila melanogaster dopamine transporter functional construct) (Drosophila melanogaster, UniProt Q7K4Y6, DEL164-191/F471L/L415A/V74A); assay: cell-based
T1 construct: expressed in transfected cells; host or cells: HEK293S GnTI- cells, transient transfection with pEG-BacMam plasmid
Method: (§1) Additional mutations in the subsite B or subsite C were incorporated into this gene used for carrying out the uptake assays.
(§2) Cells were transiently transfected with pEG-BacMam plasmid harboring the dDAT cGFP gene and incubated for 35–40 hrs at 37 °C with 5% CO2 and 80% humidity. […] The transport activity was arrested with 0.5 ml of pre-chilled assay buffer containing 100 μM desipramine (Sigma Aldrich) added to each reaction. The cells were then washed twice with the same buffer before solubilizing them in 0.1 ml of 20 mM DDM for one hour at room temperature. […] Following this, 0.1 ml of the supernatant was added to 0.5 ml of scintillation fluid (Ultima Gold, Perkin Elmer) and the radioactivity was estimated on MicroBeta scintillation counter (Perkin Elmer). […] The background-subtracted, dose–response plots were analyzed using GraphPad Prism v.5.0.1 and Ki values were determined from Cheng–Prusoff’s equation using the IC50 values obtained from the experiments.

[2] = target: T2, dDATfc A117S (Drosophila melanogaster, UniProt Q7K4Y6, A117S/DEL164-191/F471L/L415A/V74A); assay: cell-based
T2 construct: expressed in transfected cells; host or cells: HEK293S GnTI- cells, transient transfection with pEG-BacMam plasmid
Method: (§3) Earlier studies have posited that non-conserved residues in the primary binding site are responsible for selective inhibition of biogenic amine uptake[57],[58]. […] Effects of these mutations were analyzed through uptake inhibition using the three SNRIs employed in this study (Fig. 6a–c). […] Supplementary Table 2)[56],[59].
as §1, §2

[3] = target: T3, dDATfc A428S (Drosophila melanogaster, UniProt Q7K4Y6, A428S/DEL164-191/F471L/L415A/V74A); assay: cell-based
T3 construct: expressed in transfected cells; host or cells: HEK293S GnTI- cells, transient transfection with pEG-BacMam plasmid
Method: as §3, §1, §2

[4] = target: T4, dDATfc A117S/A428S (Drosophila melanogaster, UniProt Q7K4Y6, A117S/A428S/DEL164-191/F471L/L415A/V74A); assay: cell-based; assay type: cell-based
T4 construct: expressed in transfected cells; host or cells: HEK293S GnTI- cells, transient transfection with pEG-BacMam plasmid
Method: as §3, §1, §2

[5] = target: T5, dDATNET (Drosophila melanogaster, UniProt Q7K4Y6, D121G/DEL162-202/F471L/L415A/S426M/V74A); assay: biochemical; assay type: binding
T5 construct: GFP-8x-His (C); made in house; host or cells: HEK293S GnTI- cells, BacMam baculovirus transduction
Method: (§4) Binding assays were performed with 20 nM of purified dDAT protein by scintillation proximity assay. For determining nisoxetine Kd, [^3H] Nisoxetine (Perkin Elmer) (in 1:5 molar ratio) was used in the range of 0.1 nM to 500 nM with 100 µM desipramine added to the control samples. Competition assays were done with 50 nM [^3H] […] The assays were done in 1 mM DDM, 0.2 mM CHS, 20 mM Tris-Cl (pH 8), 300 mM NaCl and 5% glycerol. The background values were subtracted to plot the final curves in GraphPad prism v5.0.1 and the Kd values were calculated. The IC50 values obtained from binding competition assays were used to deduce the Ki values by Cheng–Prusoff’s equation.

[6] = target: T6, dDATmfc (Drosophila melanogaster, UniProt Q7K4Y6, DEL162-202/F471L/L415A/V74A); assay: biochemical; settings: read-out: Percent binding
T6 construct: GFP-8x-His (C); made in house; host or cells: HEK293S GnTI- cells, BacMam baculovirus transduction
Method: as §4

[7] = target: hNET; settings: read-out: Uptake Inhibition Ki, hNET; cited from earlier work
[8] = target: hDAT; set-up: method as in earlier work; settings: vs. RTI-55; ref 4 (Supplementary: Vaishnavi et al., 2004); read-out: Binding Inhibition (Ki), hDAT; cited from earlier work
[9] = target: hDAT; settings: read-out: Uptake Inhibition Ki, hDAT; ref 4 (Supplementary: Vaishnavi et al., 2004); cited from earlier work
[10] = target: hNET; settings: read-out: Binding Inhibition (Ki), hNET; cited from earlier work

## CCN(CC)C(=O)[C@]1(c2ccccc2)C[C@@H]1CN [Milnacipran, 1R-2S milnacipran]
[1]
  IC50: 2400 ± 100 nM
  Ki: 1500 ± 100 nM
[1]; HEK293S, 0.5 h, read-out: Percent inhibition of DA uptake, dDATfc, Log[compound] M = -4, single replicates
  inhibition at 100 µM: 3.99%
[1]; HEK293S, 0.5 h, read-out: Percent inhibition of DA uptake, dDATfc, Log[compound] M = -4.52288, single replicates
  inhibition at 30 µM: 6.55%
[1]; HEK293S, 0.5 h, read-out: Percent inhibition of DA uptake, dDATfc, Log[compound] M = -5, single replicates
  inhibition at 10 µM: 22.7%
[1]; HEK293S, 0.5 h, read-out: Percent inhibition of DA uptake, dDATfc, Log[compound] M = -5.52288, single replicates
  inhibition at 3 µM: 46.8%
[1]; HEK293S, 0.5 h, read-out: Percent inhibition of DA uptake, dDATfc, Log[compound] M = -6, single replicates
  inhibition at 1 µM: 82.4%
[2]
  IC50: 2800 ± 200 nM
[2]; 0.5 h, read-out: Percent inhibition of DA uptake, A117S, Log[compound] M = -5, single replicates
  inhibition at 10 µM: 21.8%
[2]; 0.5 h, read-out: Percent inhibition of DA uptake, A117S, Log[compound] M = -5.63827, single replicates
  inhibition at 2.3 µM: 62.3%
[2]; 0.5 h, read-out: Percent inhibition of DA uptake, A117S, Log[compound] M = -6, single replicates
  inhibition at 1 µM: 87.2%
[2]; 0.5 h, read-out: Percent inhibition of DA uptake, A117S, Log[compound] M = -7, single replicates
  inhibition at 0.1 µM: 99.6%
[2]; 0.5 h, read-out: Percent inhibition of DA uptake, A117S, Log[compound] M = -7.63827, single replicates
  inhibition at 0.023 µM: 94.7%
[3]
  IC50: 6600 ± 400 nM
[3]; 0.5 h, read-out: Percent inhibition of DA uptake, A428S, Log[compound] M = -4, single replicates
  inhibition at 100 µM: 7.1%
[3]; 0.5 h, read-out: Percent inhibition of DA uptake, A428S, Log[compound] M = -4.52288, single replicates
  inhibition at 30 µM: 15.3%
[3]; 0.5 h, read-out: Percent inhibition of DA uptake, A428S, Log[compound] M = -5, single replicates
  inhibition at 10 µM: 34.4%
[3]; 0.5 h, read-out: Percent inhibition of DA uptake, A428S, Log[compound] M = -5.52288, single replicates
  inhibition at 3 µM: 73.5%
[3]; 0.5 h, read-out: Percent inhibition of DA uptake, A428S, Log[compound] M = -7, single replicates
  inhibition at 0.1 µM: 107%
[3]; 0.5 h, read-out: Percent inhibition of DA uptake, A428S, Log[compound] M = -7.52288, single replicates
  inhibition at 0.03 µM: 100%
[4]
  IC50: 8900 ± 300 nM
[4]; 0.5 h, read-out: Percent inhibition of DA uptake, A117S_A428S, Log[compound] M = -4, single replicates
  inhibition at 100 µM: 6.51%
[4]; 0.5 h, read-out: Percent inhibition of DA uptake, A117S_A428S, Log[compound] M = -4.52288, single replicates
  inhibition at 30 µM: 16.4%
[4]; 0.5 h, read-out: Percent inhibition of DA uptake, A117S_A428S, Log[compound] M = -5, single replicates
  inhibition at 10 µM: 35.5%
[4]; 0.5 h, read-out: Percent inhibition of DA uptake, A117S_A428S, Log[compound] M = -5.52288, single replicates
  inhibition at 3 µM: 78.6%
[4]; 0.5 h, read-out: Percent inhibition of DA uptake, A117S_A428S, Log[compound] M = -6.52288, single replicates
  inhibition at 0.3 µM: 91.2%
[4]; 0.5 h, read-out: Percent inhibition of DA uptake, A117S_A428S, Log[compound] M = -7, single replicates
  inhibition at 0.1 µM: 87.2%
[4]; 0.5 h, read-out: Percent inhibition of DA uptake, A117S_A428S, Log[compound] M = -7.52288, single replicates
  inhibition at 0.03 µM: 89.7%
[5]; Binding Ki with dDATNET (vs. Nisoxetine), 50 nM [3H] nisoxetine, Cheng-Prusoff
  Ki: 605 ± 25.3 nM
[5]; read-out: Percent binding, DAT NET, Log Milnacipran (M) -3.52288, replicate values
  remaining activity at 300 µM: 3.09%
[5]; read-out: Percent binding, DAT NET, Log Milnacipran (M) -4, replicate values
  remaining activity at 100 µM: 12%
[5]; read-out: Percent binding, DAT NET, Log Milnacipran (M) -4.52288, replicate values
  remaining activity at 30 µM: 31.5%
[5]; read-out: Percent binding, DAT NET, Log Milnacipran (M) -5, replicate values
  remaining activity at 10 µM: 60%
[5]; read-out: Percent binding, DAT NET, Log Milnacipran (M) -5.52288, replicate values
  remaining activity at 3 µM: 78.6%
[6]; DATmfc, Log Milnacipran (M) -5, replicate values
  remaining activity at 10 µM: 21.2%
[6]
  remaining activity at 0.03 µM: 98.1%
  remaining activity at 0.3 µM: 86.3%
  remaining activity at 3 µM: 47.5%
[7]
  Ki: 52 ± 9 nM
[8]
  Ki: > 100000 nM
[9]
  Ki: > 100000 nM
[10]
  Ki: 22 ± 2.58 nM
